For 98 molecules, cytotoxicity results are on record in ChEMBL document CHEMBL3507680, “University of Dundee, Gates Library screen for HepG2 cell viability”.

The structures appear in SMILES notation.

The series can be described thus: Human HepG2 cell viability assay in 384 well format. Further details: dose 125 nL, time 70.5 hour; concentration not given beside the values. Format: toxicity, cell-based. Conditions: HepG2 cells, read-out: Inhibition.
For the molecule `Cc1cccc(C2CCCN(C(=O)CN3CCOC3=O)C2)c1` (stereo not drawn), the cytotoxicity at 70.5 h is -17.6%.

Turning to `CNc1ccnc(N(C)Cc2cc(-c3cccs3)n[nH]2)n1`, the cytotoxicity at 70.5 h worked out at 32.5%.

In the case of `CC1=CC[C@@H]2CN(C(=O)c3ccc(-c4cc[nH]n4)cc3)C[C@@H]2C1`, the cytotoxicity at 70.5 h came out at 0.519%.

Regarding `CCCn1ccnc1CN1CC[C@@H](NC(=O)c2cccnc2)[C@H](O)C1`, the cytotoxicity at 70.5 h was -16.3%.

On to `COc1ccc(C(O)C(=O)N2CCC(c3nccn3C(C)C)CC2)cc1` (stereo not drawn), for which the cytotoxicity at 70.5 h came out at 28.1%.

On to `CCN(Cc1ccccc1)C(=O)CCN1CC(O)C1`, for which the cytotoxicity at 70.5 h is -16.3%.

For `CNCc1cn(CC2CCN(Cc3cccs3)CC2)nn1`, the cytotoxicity at 70.5 h was 22.5%.

Turning to `CN1CCC(N(C)CCC(=O)N2CCC(OCc3ccccc3)CC2)C1` (stereo not drawn), the cytotoxicity at 70.5 h is 29.2%.

For the molecule `CCOCC(=O)N1CCC(c2nc(-c3cccnn3)no2)CC1`, the cytotoxicity at 70.5 h is -11.6%.

Regarding `Cc1nc(CN(C)CC2CCCN(CCc3ccc(Cl)cc3)C2)no1` (stereo not drawn), the cytotoxicity at 70.5 h was 0.0181%.

As to `CC(C)n1cc(CN(C)C[C@@H]2CCCN3CCCC[C@H]23)cn1`, the cytotoxicity at 70.5 h is -6.94%.

With `COCCN1C(=O)[C@H]2CC[C@@H]1CN(C(=O)COc1ccc(F)c(Cl)c1)C2`, the cytotoxicity at 70.5 h is -9.65%.

As to `CCCc1cc(NCc2nc(COC)no2)n2nccc2n1`, the cytotoxicity at 70.5 h was -0.144%.

Turning to `CCC(CO)N(Cc1ccsc1)Cc1cccc(O)c1` (stereo not drawn), the cytotoxicity at 70.5 h is -0.682%.

Turning to `NC(=O)CCC1CCCN(Cc2cnc(N3CCCCC3)nc2)C1` (stereo not drawn), the cytotoxicity at 70.5 h was -3.37%.

Regarding `CC(CO)Nc1ccc(-c2nc(Cc3ccc(F)cc3)no2)cn1` (stereo not drawn), the cytotoxicity at 70.5 h is -2.07%.

For the molecule `Cc1cc(CC(=O)N2CCN(C)[C@@H]3CS(=O)(=O)C[C@@H]32)ccc1F`, the cytotoxicity at 70.5 h was -4.31%.

Turning to `Cc1cc(C)n(CCCN(C)Cc2cn[nH]c2-c2ccc(F)cc2)n1`, the cytotoxicity at 70.5 h is -9.49%.

`COc1ccc(C(=O)NCc2cccnc2N2CCOCC2)o1`: the cytotoxicity at 70.5 h is -0.423%.

On to `O=C(O)c1cc2n(n1)CCCN(C(=O)CCc1c[nH]c3ccccc13)C2`, for which the cytotoxicity at 70.5 h was -16.4%.

`CC(=O)c1cc(CN2CCCC23CCN(c2ccccn2)CC3)cs1`: the cytotoxicity at 70.5 h is -19.2%.

Regarding `Cc1cc(C2CCC2)nc(NCC(C)(C)N2CCCC2)n1`, the cytotoxicity at 70.5 h was -16.9%.

For `COc1cccc2c1OCC(CNC(=O)Cn1ccnc1C)C2` (stereo not drawn), the cytotoxicity at 70.5 h was -0.227%.

As to `C/C=C(\C)CN1C[C@H](NC(=O)c2cc[nH]c2C)[C@@H](C2CC2)C1`, the cytotoxicity at 70.5 h is 10.6%.

Take `CC(C)n1cc(CN(Cc2ccsc2)CC2CCCO2)cn1` (stereo not drawn): the cytotoxicity at 70.5 h was -1.43%.

Turning to `Cc1nc(O)cc(CN2C[C@H](NS(=O)(=O)N(C)C)[C@@H](C3CC3)C2)n1`, the cytotoxicity at 70.5 h is -3.51%.

Regarding `CNc1cc(C(=O)N2CCC3(CC2)Nc2ccccc2NC3=O)ccn1`, the cytotoxicity at 70.5 h was -4.39%.

In the case of `O=C(NCCc1ccc(Cl)cc1)c1coc(CN2CCOCC2)c1`, the cytotoxicity at 70.5 h is -5.77%.

For `O=C(CCN1CCCC1)N1CC[C@@H](c2ccc3ccccc3c2)[C@H](O)C1`, the cytotoxicity at 70.5 h is -21%.

With `CCCc1nnc2sc(C3CCS(=O)(=O)CC3)nn12`, the cytotoxicity at 70.5 h was -10.2%.

On to `CC(=O)N1CCN(C(=O)c2snnc2C)[C@H]2CS(=O)(=O)C[C@H]21`, for which the cytotoxicity at 70.5 h is -6.51%.

As for `COc1cc(C)ccc1OCCN1CC[C@@]2(O)CCNC[C@H]2C1`, the cytotoxicity at 70.5 h is -4.21%.

In the case of `CNc1nc2c(c(C(=O)N3CCCC3)n1)CN(C(=O)c1cccs1)CC2`, the cytotoxicity at 70.5 h came to 5.33%.

`CCC[C@H]1CN(S(C)(=O)=O)C[C@@H]1NC(=O)Cc1ccc(F)cc1C`: the cytotoxicity at 70.5 h was -1.4%.

With `O=c1[nH]nc(CCCN2CCOCC2)n1Cc1cccc(F)c1`, the cytotoxicity at 70.5 h is -2.64%.

Regarding `Cc1nc(CCNC(=O)CC2CCN(C(C)C)CC2)sc1Cl`, the cytotoxicity at 70.5 h is 45.7%.

Consider `COc1ccc(CN2CCSCC2)c(OC)c1`, for which the cytotoxicity at 70.5 h is -6.31%.

As to `Cc1cccc2cc(C(=O)N3CCSCC3)n(C)c12`, the cytotoxicity at 70.5 h was -3.37%.

Regarding `OCCCc1nncn1-c1cccc(C(F)(F)F)c1`, the cytotoxicity at 70.5 h was -1.23%.

For the molecule `O=C(c1ccc(=O)[nH]c1)N1CCCC2(C=Cc3ccccc3O2)CC1` (stereo not drawn), the cytotoxicity at 70.5 h is -3.22%.

For the molecule `COCCCN1CC2(CCN(C(=O)Cc3csc(C)n3)CC2)CC1=O`, the cytotoxicity at 70.5 h was -7.77%.

Regarding `O=C1CC(NCc2ccncc2)CN1CCc1cccc(Cl)c1` (stereo not drawn), the cytotoxicity at 70.5 h was -6.56%.

Regarding `Cc1ccc2nc(-c3cnc(N)nc3)cc(C(=O)N(C)C)c2c1`, the cytotoxicity at 70.5 h turned out to be 1.63%.

As for `COCC(=O)N1C[C@H]2CNC[C@@]2(C(=O)NCc2nc(C)cc(C)n2)C1`, the cytotoxicity at 70.5 h was -7.28%.

As to `COc1ccc(-c2cccc(-c3ccn(CC4COCCO4)n3)c2)nn1` (stereo not drawn), the cytotoxicity at 70.5 h was -5.24%.

For the molecule `CCN(Cc1noc(C2CCC2)n1)C(=O)c1cnc2ccccc2c1`, the cytotoxicity at 70.5 h came to 13.1%.

As for `CCc1noc(C)c1C(=O)N1CCC2(CCCN(CC(C)(C)C)C2=O)C1` (stereo not drawn), the cytotoxicity at 70.5 h is -5.92%.

Take `CC(=O)N1CC2(CCN(c3nccc4ccccc34)CC2)CC1C(=O)O` (stereo not drawn): the cytotoxicity at 70.5 h is -9.28%.

Turning to `CC(C)N1CCOC(CC(=O)N2CCCN(Cc3cccs3)CC2)C1` (stereo not drawn), the cytotoxicity at 70.5 h was -11.6%.

Turning to `CCN1CCCC(CN(C)c2nccc(-c3ccc(C)nc3C)n2)C1` (stereo not drawn), the cytotoxicity at 70.5 h is -1.39%.

As for `OCc1ccc(CN(CCCn2ccnc2)Cc2cccnc2)o1`, the cytotoxicity at 70.5 h is -8.65%.

For the molecule `COCCN1CCC(CNC(=O)Nc2ccc(F)c(Cl)c2)C1` (stereo not drawn), the cytotoxicity at 70.5 h was determined as 24.8%.

For the molecule `CCc1cc(NCC(O)CN2CCCC2)ncn1` (stereo not drawn), the cytotoxicity at 70.5 h came to 21.2%.

On to `O=C1O[C@@H]2CN(Cc3cc4ccccc4s3)C[C@@H]2N1Cc1ccccn1`, for which the cytotoxicity at 70.5 h was -6.44%.

In the case of `c1cc(-c2nccn2CCc2nc3c(s2)CCC3)ccn1`, the cytotoxicity at 70.5 h was determined as 12.9%.

For `NCC1Cc2cc(Cl)cc(-c3cncc(C(=O)N4CCCCC4)n3)c2O1` (stereo not drawn), the cytotoxicity at 70.5 h is -6.78%.

Consider `Cc1noc(C)c1C(=O)N1CCCC(c2nccn2Cc2cscn2)C1` (stereo not drawn), for which the cytotoxicity at 70.5 h is -5.18%.

For the molecule `O=C(NCc1ccc(F)cc1F)C(c1cccnc1)N1CCOCC1` (stereo not drawn), the cytotoxicity at 70.5 h was -0.235%.

In the case of `c1nc(N2CCCC2)ncc1CN1CCCC(CN2CCCCC2)C1` (stereo not drawn), the cytotoxicity at 70.5 h stood at 24.4%.

`CC(C)[C@H]1CN(c2ccncc2)C[C@@H]1NS(=O)(=O)N(C)C`: the cytotoxicity at 70.5 h was -4.27%.

As to `Cc1cc(N[C@@H](CO)c2ccccc2)n2nc(C)c(C)c2n1`, the cytotoxicity at 70.5 h was -2.95%.

For the molecule `CCCN(Cc1nccn1C)C(=O)C(CC)Nc1cccc(OC)c1` (stereo not drawn), the cytotoxicity at 70.5 h is -3.17%.

Consider `Cc1nc(CN2CCCC23CCN(c2nc4ccccc4s2)CC3)co1`, for which the cytotoxicity at 70.5 h is -12.9%.

For `CC(=O)N1CCN(Cc2cccc3c2sc2ccccc23)CC(O)C1` (stereo not drawn), the cytotoxicity at 70.5 h is -5.85%.

In the case of `CSc1ncc(CNC(C)c2cnn(-c3ccc(F)cc3F)c2C)cn1` (stereo not drawn), the cytotoxicity at 70.5 h was -2.86%.

Consider `CN1CCn2nc(-c3nc4ccccc4n3C)cc2C1`, for which the cytotoxicity at 70.5 h was found to be 32.2%.

Turning to `COCCN(C)C(C(=O)O)c1cc(Cl)ccc1OC` (stereo not drawn), the cytotoxicity at 70.5 h is 7.55%.

As to `O=C(c1cn(CC(=O)N2CCCC2)c2ccccc12)C1CC1`, the cytotoxicity at 70.5 h was -2.27%.

For `CCc1cc(N(C)Cc2nonc2C)nc(N(C)C)n1`, the cytotoxicity at 70.5 h was determined as 7.36%.

Turning to `Cc1nc(CNCc2ccc(OC34CCCN(CC3)C4)cc2)n[nH]1` (stereo not drawn), the cytotoxicity at 70.5 h is -5.4%.

`CN(Cc1cnc(N)nc1)CC1CCCN(CCc2ccc(Cl)cc2)C1` (stereo not drawn): the cytotoxicity at 70.5 h was found to be 8.66%.

On to `CC[C@@H](CO)NC(=O)c1cc(COc2ccc(OC)cc2Cl)[nH]n1`, for which the cytotoxicity at 70.5 h is -3.92%.

Consider `NC(=O)c1ccccc1-n1cc(-c2cccc(C(=O)O)c2)cn1`, for which the cytotoxicity at 70.5 h was -9.16%.

As to `CCNc1ccnc(NCc2cn3nc(C)sc3n2)n1`, the cytotoxicity at 70.5 h is -15.7%.

For the molecule `Fc1cc(Cl)cnc1N1CCCC(c2nccn2CC2CC2)C1` (stereo not drawn), the cytotoxicity at 70.5 h is 22.7%.

For `COCCN(Cc1sccc1C)C(=O)C1CCN(C(C)C)CC1`, the cytotoxicity at 70.5 h was -2.9%.

Take `Cc1cccc2cc(CN3CCC(N4CCCC4)CC3)c(=O)[nH]c12`: the cytotoxicity at 70.5 h is -6.75%.

On to `c1ccc(-c2nc(CCNC3CCOC4(CCOCC4)C3)no2)cc1` (stereo not drawn), for which the cytotoxicity at 70.5 h was -8.69%.

Regarding `NCCc1nc(N[C@@H](CO)c2ccccc2)c2ccccc2n1`, the cytotoxicity at 70.5 h was determined as 7.85%.

As to `CN(C)c1ncnc2c1CCN(S(=O)(=O)c1ccccc1C(F)(F)F)C2`, the cytotoxicity at 70.5 h came to 1.88%.

With `CC(C)(C)C(=O)N1CCC(n2cc(C3(O)CCCC3)nn2)CC1`, the cytotoxicity at 70.5 h is -9.39%.

For `CCc1ncc(C(=O)N2CCN(C(=O)COc3ccccc3)CC2)cn1`, the cytotoxicity at 70.5 h is -3.1%.

`Cc1nccn1CCC1CCN(c2ccncn2)CC1`: the cytotoxicity at 70.5 h was -2.98%.

In the case of `CN1C[C@@H](NC(=O)C(C)(C)C)C[C@H]1C(=O)NCc1ncc[nH]1`, the cytotoxicity at 70.5 h is -8.54%.

On to `Cc1cccc2[nH]c(C3CCN(C(=O)c4c[nH]c(=O)[nH]c4=O)CC3)nc12`, for which the cytotoxicity at 70.5 h was -7.98%.

In the case of `Cc1c(C(C)NC(=O)Nc2ccc(F)cc2F)cnn1C` (stereo not drawn), the cytotoxicity at 70.5 h was -3.54%.

On to `OCC1CCCCN1CCCNCc1cc(O)c2cc(F)ccc2n1` (stereo not drawn), for which the cytotoxicity at 70.5 h is -4.1%.

For `Cc1nonc1CN(C)c1nc(-c2cccnc2)nc2c1CCNC2`, the cytotoxicity at 70.5 h worked out at 0.678%.

Regarding `COCCN1CCC(CN(CC2CCCO2)C(=O)Cn2cccn2)CC1` (stereo not drawn), the cytotoxicity at 70.5 h is -4.66%.

Consider `Cc1nc(-c2cccc(N3CCC(N4CCCC4)CC3)c2)cs1`, for which the cytotoxicity at 70.5 h worked out at 13.8%.

On to `O=C(c1ccc2sccc2c1)N1CCC(C(=O)O)(n2cccn2)CC1`, for which the cytotoxicity at 70.5 h is -6.51%.

Take `COc1cnc(N2CCCN(Cc3ccc(F)cc3)CC2)nc1`: the cytotoxicity at 70.5 h is 4.55%.

Take `CC(C)=CCN1Cc2nnc(C3CCOCC3)n2C(Cc2c[nH]cn2)C1` (stereo not drawn): the cytotoxicity at 70.5 h was -5.43%.

Consider `Cc1nccnc1N1Cc2cnn(Cc3ccc(F)cc3)c2C1`, for which the cytotoxicity at 70.5 h is -0.0825%.

With `CCNc1ccc(-c2ccnc3c2ccn3C)nn1`, the cytotoxicity at 70.5 h is -5.15%.

For `CCC(C)N(CC)C(=O)c1ccc2[nH]nnc2c1` (stereo not drawn), the cytotoxicity at 70.5 h is -6.36%.

Take `CCn1cc(CN(C)Cc2cnn(-c3ccc(F)cc3)c2)cn1`: the cytotoxicity at 70.5 h stood at 13.5%.

On to `c1coc(-c2nc(CNC3CCC4(CCNCC4)CC3)no2)c1`, for which the cytotoxicity at 70.5 h was -3.78%.
